The record followed here is patent EP0600782A1, “C-11 modified pradimicin derivatives” (priority 1992, dated 1994).

Data set [1] has as its system Aspergillus fumigatus IAM 2034. The data set is described as follows: In vitro antifungal activity (MIC), agar dilution method, 11-xylosyl precursors. Type of data set: cell-based. Particulars: 10^6 cells/ml, 28°C, 40 hrs. Here is the method:
(§1) The in vitro antifungal activities of pradimicins T1 and T2 and 11-0-dexylosylpradimicin T1 were determined by the agar dilution method on yeast morphology agar containing 1/15M phosphate buffer (pH 7.0).
A general note: In agar dilution the substance is mixed into plates at graded concentrations.

Data set [2] has as its system Candida albicans 83-2-14 (Juntendo). Described as above. Type of data set: cell-based. To be noted: yeast morphology agar + 1/15M phosphate buffer (pH 7.0), 10^6 cells/ml, 28°C, 40 hrs. Here is the method:
as §1

Data set [3] deals with Candida albicans A9540. Described as above. Format: cell-based. To be noted: yeast morphology agar + 1/15M phosphate buffer (pH 7.0), 10^6 cells/ml, 28°C, 40 hrs. Here is the method:
as §1

The subject of data set [4] is Candida albicans ATCC 32354 (B311). The description is as above. To be noted: 10^6 cells/ml, 28°C, 40 hrs. Format: cell-based. Here is the method:
as §1

For data set [5], the system named is Candida albicans ATCC 38247. The description is as above. Type of data set: cell-based. To be noted: 10^6 cells/ml, 28°C, 40 hrs. Here is the method: as §1
Data set [6] relates to Candida tropicalis 85-8 (Kitasato). The data set is described as above. Particulars: yeast morphology agar + 1/15M phosphate buffer (pH 7.0), 10^6 cells/ml, 28°C, 40 hrs. Format: cell-based. The procedure: as §1
In data set [7] the test system is Candida tropicalis IFO 10241. Described as above. To be noted: 10^6 cells/ml, 28°C, 40 hrs. Type of data set: cell-based. Here is the method:
as §1

Data set [8] concerns Cryptococcus neoformans D49. The description is as above. Type of data set: cell-based. Particulars: yeast morphology agar + 1/15M phosphate buffer (pH 7.0), 10^6 cells/ml, 28°C, 40 hrs. Here is the method: as §1
For data set [9], the system named is Cryptococcus neoformans IAM 4514. The data set is described as above. Type of data set: cell-based. To be noted: 10^6 cells/ml, 28°C, 40 hrs. Here is the method: as §1
The subject of data set [10] is Saccharomyces cerevisiae ATCC 9763. The data set is described as above. To be noted: 10^6 cells/ml, 28°C, 40 hrs. Type of data set: cell-based. The procedure:
as §1

Data set [11] relates to Trichophyton mentagrophytes 4329. The description is as above. Format: cell-based. Particulars: yeast morphology agar + 1/15M phosphate buffer (pH 7.0), 10^7 cells/ml, 28°C, 60 hrs. The procedure: as §1
The subject of data set [12] is Candida albicans A9540 systemic infection. The experiment in a line: In vivo efficacy against systemic infection in mice. Also noted: species or system male ICR mice. To be noted: for PD50: C. albicans A9540 systemic infection, male ICR mice, single intravenous dose immediately after challenge, survival rate 20 days after infection; for ED50: Candida albicans, iv, 480 h, read-out: PD50. Here is the method:
(§2) Pradimicins T1 and T2 were evaluated for in vivo efficacy against a Candida albicans A9540 systemic infection in male ICR mice (20-24 g body weight) as described by Oki et al. in "Water-soluble pradimicin derivatives, synthesis and antifungal evaluation of N,N,-dimethyl pradimicins", J. Antibiotics 43:1230-1235, 1990. Five mice at each dose level were challenged intravenously with ten times the 50% lethal dose of the pathogen suspended in saline. Antibiotics were intravenously administered once immediately after the fungal challenge. Infection control animals (n=10) died from 7 to 12 days. The 50% protective dose (PD₅₀) was calculated from the survival rate 20 days after the fungal infection. The acute toxicity of pradimicins T1 and T2 was determined in mice after a single intravenous dose.

Data set [13] can be described thus: Acute toxicity in mice after a single intravenous dose. Type of data set: in vivo. The procedure:
as §2

Data set [14] relates to Candida albicans A9540. The data set is described as follows: In vitro antifungal activity (MIC), agar dilution on yeast morphology agar. Type of data set: cell-based. Particulars: YMA, 0.06M phosphate (pH 7.0), 28°C, 40 hours, read-out: MIC Ca-4. Here is the method: (§3) The in vitro antifungal activity (MIC) of the compounds of the invention was determined on yeast morphology agar (YMA, Difco Laboratories, USA), buffered with 0.06M phosphate (pH 7.0). Nine parts of molten agar were combined with one part of antibiotic dilution in petri dishes. A 5-µl suspension containing 2x10⁶ cells/ml was spotted on the surface of the agar plates. The plates were incubated at 28°C and MICs were recorded after 40 hours of the incubation. All of the 11-hydroxy derivatives of Formula I-I are active against a wide range of fungi.

The test system of data set [15] is Candida tropicalis IFO10241. The description is as above. Type of data set: cell-based. To be noted: YMA, 0.06M phosphate (pH 7.0), 28°C, 40 hours, read-out: MIC Ct-12. The procedure: as §3
The test system of data set [16] is Cryptococcus neoformans IAM4514. Described as above. Type of data set: cell-based. Particulars: YMA, 0.06M phosphate (pH 7.0), 28°C, 40 hours, read-out: MIC Cn-2. Here is the method: as §3
The mark [17] stands for this setting: IAM2034, yeast morphology agar + 1/15M phosphate buffer (pH 7.0), read-out: MIC.
The mark [18] stands for this setting: ATCC32354, yeast morphology agar + 1/15M phosphate buffer (pH 7.0), read-out: MIC.
[19] abbreviates: ATCC38247, yeast morphology agar + 1/15M phosphate buffer (pH 7.0), read-out: MIC.
Where [20] appears, read: IFO10241, yeast morphology agar + 1/15M phosphate buffer (pH 7.0), read-out: MIC.
Where [21] appears, read: IAM4514, yeast morphology agar + 1/15M phosphate buffer (pH 7.0), read-out: MIC.
Where [22] appears, read: ATCC9763, yeast morphology agar + 1/15M phosphate buffer (pH 7.0), read-out: MIC.
The mark [23] stands for this setting: yeast morphology agar + 1/15M phosphate buffer (pH 7.0).

As a reminder, the LD50 is the dose at which mortality reaches 50%.

≈ marks a conversion by molar mass, not a printed value. Read-outs that look alike come from different tables or passages of the source.

As for `Cc1cc2c(c(O)c1C(=O)NCC(=O)O)-c1c(cc3c(c1O)C(=O)c1cc(O)cc(O)c1C3=O)[C@H](O)[C@H]2O[C@@H]1O[C@H](C)[C@H](O)[C@H](O[C@@H]2OC[C@@H](O)[C@H](O)[C@H]2O)[C@H]1O` [11-O-Dexylosyl-pradimicin T1], the MIC came to 25 µg/mL in [1] (setting [17]); 3.1 µg/mL in data set [2] (read-out: MIC); 6.3 µg/mL in the data set with Candida albicans A9540 [3] (read-out: MIC); 3.1 µg/mL in [4] (setting [18]); 3.1 µg/mL in data set [5] (setting [19]); 12.5 µg/mL in data set [6] (read-out: MIC). The MIC was found to be 12.5 µg/mL in data set [7] (setting [20]); 6.3 µg/mL in data set [8] (read-out: MIC); 6.3 µg/mL in data set [9] (setting [21]); 3.1 µg/mL in data set [10] (setting [22]); 12.5 µg/mL in data set [11] (read-out: MIC).

As for Pradimicin T1, the MIC is 6.3 µg/mL in data set [1] (setting [23]); 6.3 µg/mL in [2]; 6.3 µg/mL in the data set with Candida albicans A9540 [3]; 6.3 µg/mL in data set [4] (setting [23]); 1.6 µg/mL in [5] (setting [23]); 25 µg/mL in [6]. Besides, the MIC in [7] (setting [23]) is 12.5 µg/mL; in data set [8], 3.1 µg/mL; in [9] (setting [23]), 3.1 µg/mL; in [10] (setting [23]), 3.1 µg/mL; in [11], 6.3 µg/mL. This molecule gave a PD50 in data set [12] of 27 mg/kg. For the same molecule, in data set [13], the LD50 is 300 mg/kg.

As to `C[C@@H]1[C@H](O)[C@@H](C)/C=C/C=C/C=C/C=C/C=C/C=C/C=C/[C@H](O[C@@H]2O[C@H](C)[C@@H](O)[C@H](N)[C@@H]2O)C[C@@H]2O[C@](O)(C[C@@H](O)C[C@@H](O)[C@H](O)CC[C@@H](O)C[C@@H](O)CC(=O)O[C@H]1C)C[C@H](O)[C@H]2C(=O)O` [Amphotericin B, reference compound], the ED50 in [12] came to 0.2 mg/kg. Moreover, the LD50 in data set [13] (mouse, in vivo, read-out: LD50) amounted to 4.5 mg/kg.

For the molecule `CNC1C(C)OC(OC2c3cc(C)c(C(=O)NC(C)C(=O)O)c(O)c3-c3c(cc4c(c3O)C(=O)c3cc(O)cc(O)c3C4=O)C2O)C(O)C1OC1OCC(O)C(O)C1O` (centres unmarked) [Compound IA, 11-O-Demethylpradimicin A], the results for the MIC (in the data set on Candida albicans A9540 [14]; in [15]; in data set [16]) were 6.3 µg/mL (≈ 7.62 µM), 25 µg/mL (≈ 30.2 µM) and 3.1 µg/mL (≈ 3.75 µM), respectively.

Consider `Cc1cc2c(c(O)c1C(=O)NCC(=O)O)-c1c(cc3c(c1O)C(=O)c1cc(OCc4ccccc4)cc(O)c1C3=O)[C@H](O)[C@H]2O[C@@H]1O[C@H](C)[C@H](O)[C@H](O[C@@H]2OC[C@@H](O)[C@H](O)[C@H]2O)[C@H]1O` [IID, 11-O-Benzyl-11-O-dexylosylpradimicin T1], for which the figures for the MIC (in the data set with Candida albicans A9540 [14]; in [15]; in data set [16]) were over 100 µg/mL, over 100 µg/mL and 12.5 µg/mL (≈ 14 µM), respectively.

Consider `CC(=O)N1CCN(c2ccc(OCC3COC(Cn4ccnc4)(c4ccc(Cl)cc4Cl)O3)cc2)CC1` (centres unmarked) [Ketoconazole, reference compound], for which the MIC in data set [1] (setting [17]) was found to be 3.1 µg/mL; in the data set on Candida albicans A9540 [3] (read-out: MIC), 50 µg/mL; in data set [4] (setting [18]), 50 µg/mL; in [5] (setting [19]) it was 25 µg/mL; in data set [6] (read-out: MIC), 100 µg/mL; in data set [7] (setting [20]) it was 50 µg/mL. The MIC in data set [8] (read-out: MIC) turned out to be 0.8 µg/mL; in data set [9] (setting [21]), 0.4 µg/mL; in [10] (setting [22]), 50 µg/mL; in data set [11] (read-out: MIC), 0.8 µg/mL. In addition, in data set [12], the ED50 is over 50 mg/kg.

With `Cc1cc2c(c(O)c1C(=O)NC(CO)C(=O)O)-c1c(cc3c(c1O)C(=O)c1cc(O)cc(O)c1C3=O)C(O)C2OC1OC(C)C(O)C(OC2OCC(O)C(O)C2O)C1O` (centres unmarked) [IF, 11-O-Demethyl-BMS-181184], the MIC in the data set with Candida albicans A9540 [14] was 6.3 µg/mL (≈ 7.59 µM); in data set [15] it was 12.5 µg/mL (≈ 15.1 µM); in data set [16], 12.5 µg/mL (≈ 15.1 µM).

With Pradimicin T2, the MIC in data set [1] (setting [23]) is over 100 µg/mL; in data set [2], 3.1 µg/mL; in the data set on Candida albicans A9540 [3], 3.1 µg/mL; in data set [4] (setting [23]) it was 3.1 µg/mL; in data set [5] (setting [23]), 1.6 µg/mL; in data set [6] it was 6.3 µg/mL. Moreover, the MIC was 6.3 µg/mL in [7] (setting [23]); 6.3 µg/mL in data set [8]; 6.3 µg/mL in data set [9] (setting [23]); 0.8 µg/mL in data set [10] (setting [23]); 50 µg/mL in [11]. Also, the PD50 in data set [12] was over 50 mg/kg. Also, the LD50 in data set [13] was over 600 mg/kg.
